This is an account of results in US10308637B2 (LifeSci Pharmaceuticals, Inc., priority 2015, dated 2019).

The assay is described as follows: Contact Assay (percentage inhibition from fluorescence intensity). The class given is biochemical. As to the method: The percentage inhibition was calculated using the following equation:
[formula] where, Mean(BG) is the average value of the fluorescence intensity of the background wells and Mean(PC) is the average value of the fluorescence intensity of the positive control wells.
Table 4 provides the EC50 values of various compounds disclosed herein.
As for `Cc1cc(N)nc(C)c1CNC(=O)c1cc(CN)nc(Cc2ccc3ncc(Cl)cc3c2)c1` [Example 211, N-((6-amino-2,4-dimethylpyridin-3-yl)methyl)-2-(aminomethyl)-6-((3-chloroquinolin-6-yl)methyl)isonicotinamide], the EC50 (usually the midpoint of the concentration-response curve) was ≤ 100 nM.
For the compound `Cc1cc(N)nc(C)c1CNC(=O)c1cc(CO)nc(Cc2ccc3ncc(Cl)cc3c2)c1` [Example 212, N-((6-amino-2,4-dimethylpyridin-3-yl)methyl)-2-((3-chloroquinolin-6-yl)methyl)-6-(hydroxymethyl)isonicotinamide], the EC50 was ≤ 100 nM.
Then `Cc1cc(N)nc(C)c1CNC(=O)c1cc(CC#N)nc(Cc2ccc3ncc(Cl)cc3c2)c1` [Example 213, N-((6-amino-2,4-dimethylpyridin-3-yl)methyl)-2-((3-chloroquinolin-6-yl)methyl)-6-(cyanomethyl)isonicotinamide], with ≤ 100 nM; and `Cc1cc(N)nc(C)c1CNC(=O)c1cc(CC(N)=O)nc(Cc2ccc3ncc(Cl)cc3c2)c1` [Example 214, N-((6-amino-2,4-dimethylpyridin-3-yl)methyl)-2-(2-amino-2-oxoethyl)-6-((3-chloroquinolin-6-yl)methyl)isonicotinamide], with ≤ 100 nM; and `Cc1cc(N)nc(C)c1CNC(=O)c1ccnc(Cc2cc3cc(C(F)(F)F)cnc3[nH]2)c1` [Example 215, N-((6-amino-2,4-dimethylpyridin-3-yl)methyl)-2-((5-(trifluoromethyl)-1H-pyrrolo[2,3-b]pyridin-2-yl)methyl)isonicotinamide], with 100 to 1000 nM.
In the case of `Cc1cc(N)nc(C)c1CNC(=O)c1ccnc(Cc2cc(N)c3ncc(Cl)cc3c2)c1` [Example 217, N-((6-amino-2,4-dimethylpyridin-3-yl)methyl)-2-((8-amino-3-chloroquinolin-6-yl)methyl)isonicotinamide] it was ≤ 100 nM.
Then `Cc1cc(N)nc(C)c1CNC(=O)c1ccnc(Cc2cc(C(C)(C)O)c3ncc(Cl)cc3c2)c1` [Example 219, N-((6-amino-2,4-dimethylpyridin-3-yl)methyl)-2-((3-chloro-8-(2-hydroxypropan-2-yl)quinolin-6-yl)methyl)isonicotinamide], with ≤ 100 nM; and `Cc1nc(N)ccc1CNC(=O)c1ccnc(Cc2cc(C(C)(C)O)c3ncc(Cl)cc3c2)c1` [Example 220, N-((6-amino-2-methylpyridin-3-yl)methyl)-2-((3-chloro-8-(2-hydroxypropan-2-yl)quinolin-6-yl)methyl)isonicotinamide], with ≤ 100 nM; and `CC(C)(O)c1cc(Cc2cc(C(=O)NCc3cc4c(Cl)c[nH]c4cc3F)ccn2)cc2cc(Cl)cnc12` [Example 221, N-((3-chloro-6-fluoro-1H-indol-5-yl)methyl)-2-((3-chloro-8-(2-hydroxypropan-2-yl)quinolin-6-yl)methyl)isonicotinamide], with 100 to 1000 nM.
`CC(C)(O)c1cc(Cc2cc(C(=O)NCc3ccc4[nH]cc(Cl)c4c3F)ccn2)cc2cc(Cl)cnc12` [Example 222, N-((3-chloro-4-fluoro-1H-indol-5-yl)methyl)-2-((3-chloro-8-(2-hydroxypropan-2-yl)quinolin-6-yl)methyl)isonicotinamide] yielded an EC50 of 100 to 1000 nM.
Then `CC(C)(O)c1cc(Cc2cc(C(=O)NCc3cnc4[nH]cc(Cl)c4c3)ccn2)cc2cc(Cl)cnc12` [Example 223, N-((3-chloro-1H-pyrrolo[2,3-b]pyridin-5-yl)methyl)-2-((3-chloro-8-(2-hydroxypropan-2-yl)quinolin-6-yl)methyl)isonicotinamide], with ≤ 100 nM.
In the case of `CC(C)(O)c1cc(Cc2cc(C(=O)NCc3ccc4c(N)nccc4c3)ccn2)cc2cc(Cl)cnc12` [Example 224, N-((1-aminoisoquinolin-6-yl)methyl)-2-((3-chloro-8-(2-hydroxypropan-2-yl)quinolin-6-yl)methyl)isonicotinamide], the EC50 was ≤ 100 nM.
